Data taken from patent publication US11576914B2, “Drug for treating or preventing disorder caused by TGF-β signaling, and application thereof” (THE DOSHISHA, priority 2017, dated 2023).
Several values for one entry are separate records, joined by “and”; a condition that tells them apart may be missing. Identical values can stand only once. Entries after “also recorded” stand apart in the source; their conditions may differ.

Columns and labels:
caspase 3/7 = assay: Caspase-Glo 3/7 Assay in human corneal endothelial cells in the presence of AKP-001; assay type: cell-based; conditions: 24 hours
Experimental: Cultured human corneal endothelial cells were seeded at a rate of 1×10^4 per well in a 96-well plate coated with laminin-511E8, and the cells were cultured until reaching confluence at 37° C. (5% CO^2). For the medium, used was OptiMEM-I (invitrogen, 31985-088)+8% FBS (Thermo, SH30084.03)+5 ng/mL epidermal growth factor (invitrogen, PHG0311)+20 μg/mL L-ascorbic acid 2-sesquimagnesium phosphate hydrate (SIGMA, A8960)+200 mg/L calcium chloride dihydrate (SIGMA, C7902)+0.08% chondroitin sulfate (Wako Pure Chemical Industries, Ltd., 032-14613)+50 μg/mL gentamicin (invitrogen, 15710-064)+1 μM SB431542 (WAKO, 192-16541)+10 μM SB203580 (Cayman, 13067).
Upon reaching confluence, the culturing was further conducted for one more week with OptiMEM-I (invitrogen, 31985-088)+8% FBS (Thermo, SH30084.03)+20 μg/mL+200 mg/L calcium chloride dihydrate (SIGMA, C7902)+0.08% chondroitin sulfate (Wako Pure Chemical Industries, Ltd., 032-14613)+50 μg/mL gentamicin (invitrogen, 15710-064).
After one week, the medium was removed, and a medium with 0.1 μM, 0.3 μM, 1 μM, 3 μM, 10 μM, 30 μM and 100 μM AKP-001 included therein was added, followed by culturing for 24 hours. For the medium, used was OptiMEM-I (invitrogen, 31985-088)+8% FBS (Thermo, SH30084.03)+20 μg/mL+200 mg/L calcium chloride dihydrate (SIGMA, C7902)+0.08% chondroitin sulfate (Wako Pure Chemical Industries, Ltd., 032-14613)+50 μg/mL gentamicin (invitrogen, 15710-064).
After the observation, the caspase 3/7 activity was measured by Caspase-Glo 3/7 Assay according to the following procedure. The medium was discarded to 50 μl per well, and Caspase Glo 3/7 Assay Reagent (mixture of Caspase-Glo 3/7 Assay Buffer and Caspase-Glo 3/7 Assay Substrate) (Promega, G8091) solution was added to the 50 μl/well to reach 1:1 with the medium. The operations from this point on were conducted while light was blocked. […] After standing, 80 μl was transferred to an Assay plate (Corning, 3912, Assay plate 96 well, white polystyrene), and the […] was measured using GloMax-Multi Detection System (Promega, E7051).

rabbits = assay: Eye irritation testing (AKP-001 instillation); assay type: in vivo, rabbit
Experimental: Rabbits that met the above criteria were used in the testing. The testing was carried out using a total of 4 rabbits. Fifty μl of 0.1 mM AKP-001 was instilled into the right eyes of the rabbits, and the eyes were maintained in a closed state for 30 seconds. The left eyes were instilled with a vehicle in the same manner. This operation was performed every 30 minutes and 10 times in total.
The anterior eye part was observed before and after the instillation using a slit lamp microscope (SL-D7, Topcon). The anterior eye part was stained with fluorescein sodium test paper (Showa Yakuhin Kako Co., Ltd.) and observed with a slit lamp microscope with regard to the presence or absence of corneal epithelial disorder. Further, the corneal thickness, corneal shape, and corneal volume thereof were analyzed using Pentacam® HR (OCULUS). The corneal endothelium was observed using a scanning slit-type, contact-type corneal endothelium specular microscope (Konan Medical, Inc.). Further, the central corneal thickness was measured using an ultrasonic pachymeter (SP-100, Tomey Corporation), and the intraocular pressure was measured using Tonovet® (ME Technica).
Corneal transparency was evaluated by the following Grading.
Opacity: degree of turbidity (the most turbid area is read.)

[1] = tested on: immortalized human corneal endothelial cells (iHCEC); assay: Cell damage by ER stress induced by thapsigargin; assay type: cell-based; conditions: 24 hours pretreatment, 20 μM thapsigargin 3 hours
Experimental: The medium was removed from a culture dish in which immortalized human corneal endothelial cells (iHCEC) were being cultured, and the cells were supplemented with 1×PBS (−) that was preheated to 37° C., and were washed. This operation was repeated twice. The cells were supplemented again with 1×PBS (−) and incubated for 5 minutes at 37° C. (5% CO2). After removing the PBS (−), the cells were supplemented with 0.05% Trypsin-EDTA (Nacalai Tesque, 32778-34) and incubated for 5 minutes at 37° C. (5% CO2). The cells were then suspended in a medium, and collected by centrifugation at 1500 rpm for 3 minutes. DMEM (Nacalai Tesque, 08456-36)+10% FBS (Biowest, S1820-500)+1% P/S (Nacalai Tesque, 26252-94) was used as the medium. Immortalized human corneal endothelial cells (lot: iHCEC1-1) were seeded on a 12-well plate at a ratio of 8×10^4 cells per well and cultured for 48 hours at 37° C. (5% CO2) while using DMEM+10% FBS+1% P/S as the medium. The medium was then removed, and each inhibitor was added to culture the cells for 24 hours using DMEM+2% FBS+1% P/S as the medium. The medium was then removed. A medium (DMEM+2% FBS+1% P/S) containing 20 μM thapsigargin (Wako, 209-17281) and AKP-001 was added to culture the cells for 3 hours. Then, the cell morphology and apoptosis were observed using a phase contrast microscope.

[2] = prior to and after 10 instillations

## O=C(Cc1c(F)cccc1Cl)Nc1onc(-c2ccc(F)cc2)c1-c1ccncn1 [AKP-001, 5-[(2-chloro-6-fluorophenyl)acetylamino]-3-(4-fluorophenyl)-4-(4-pyrimidinyl)isoxazole]
Caspase 3/7; 0.1 μM, 0.3 μM, 1 μM and 3 μM
  caspase 3/7 activity compared to the control group: no significant difference
Caspase 3/7; 10 μM, 30 μM and 100 μM
  caspase 3/7 activity compared to the control group: significantly activated
Caspase 3/7
  concentrations at which no damage to the cells is caused: ≤ 10 µM
rabbits; 0.1 mM instilled 10 times
  corneal thickness (Pentacam HR): No obvious changes
  epithelial disorder of the keratoconjunctiva, fluorescein staining: no epithelial disorder of the stained keratoconjunctiva was observed
  hyperemia: no hyperemia was observed
  inflammation of the anterior eye part: no inflammation or the like was observed; also recorded: no inflammation of the anterior eye part was observed
  shape of the cornea (Scheimpflug images): No obvious change
rabbits; 10 instillations
  corneal endothelium, specular microscope images: No obvious changes
rabbits; 50 μl of 0.1 mM instilled 10 times every 30 minutes
  cornea, slit lamp microscope: transparent
rabbits; before and after 10 instillations, all the corneas
  corneal transparency score: zero and 0
rabbits; [2]
  central corneal thickness (ultrasonic pachymeter): No significant changes
  corneal volume (10 mm diameter, Pentacam HR): No significant changes
  intraocular pressure (Tonovet): No significant changes
[1]
  damage to the corneal endothelial cells: suppression of damage to the corneal endothelial cells was observed
